The subject of data set [1] is P388. Put plainly: Antitumor activity against mouse P388 cells xenografted in mouse assessed as median life span at 6 mg/kg, ip q4d for 3 days measured for 60 days. It counts as functional. The settings on record: route intraperitoneal.
The test system of a further data set is MCF7. Put plainly: Cytotoxicity against human MCF7 cells. It counts as functional.
For another data set, the system named is HeLa. Put plainly: Cytotoxicity against human HeLa cells. It counts as functional.
The test system of data set [2] is P388. Put plainly: Antitumor activity against mouse P388 cells xenografted in mouse assessed as median life span at 3 mg/kg, ip q4d for 3 days measured for 60 days. It counts as functional. The settings on record: route intraperitoneal.
The nature of data set [3]: Toxicity to mouse assessed as mortality at 12 mg/kg, ip q4d for 3 days. It counts as organism-based. Also on record: dose 12 mg/kg, route intraperitoneal. The settings on record: in vivo, read-out: Activity.
Data set [4] deals with P388. Put plainly: Antitumor activity against mouse P388 cells xenografted in mouse assessed as median life span at 12 mg/kg, ip q4d for 3 days measured for 60 days. It counts as functional. The settings on record: route intraperitoneal.
In data set [5] the test system is P388. Put plainly: Antitumor activity against mouse P388 cells xenografted in mouse assessed as median life span at 4 mg/kg, ip q4d for 3 days measured for 60 days. It counts as functional. The note with it: route intraperitoneal.
For data set [6], the system named is P388. Put plainly: Antitumor activity against mouse P388 cells xenografted in mouse assessed as median life span at 8 mg/kg, ip q4d for 3 days measured for 60 days. It counts as functional. The note with it: route intraperitoneal.
Data set [7] deals with P388. Put plainly: Antitumor activity against mouse P388 cells xenografted in mouse assessed as median life span at 2 mg/kg, ip q4d for 3 days measured for 60 days. It counts as functional. The note with it: route intraperitoneal.

From ChEMBL document CHEMBL1136853, “Synthesis and SAR of vinca alkaloid analogues” (Bioorg Med Chem Lett, 2009) come the findings set out here.

One may read the T/C as the ratio of treated to control. The GI50 is the concentration giving 50% growth inhibition. The low end stands for more potent growth inhibition, the high end for less potent growth inhibition.

In the case of `CC[C@]1(O)C[C@H]2CN(CCc3c([nH]c4ccc(C)cc34)[C@@](C(=O)OC)(c3cc4c(cc3OC)N(C)[C@H]3[C@@](O)(C(=O)OC)[C@H](OC(C)=O)[C@]5(CC)CC=CN6CC[C@]43[C@@H]65)C2)C1`, the figures for the T/C in the data set on P388 [1] and in the data set with P388 [2] were 181% and 133%, respectively. Further, the GI50 with MCF7 and with HeLa was 0.3 nM each time.

In the case of `CCC1=C[C@@H]2CN(C1)Cc1c([nH]c3ccccc13)[C@@](C(=O)OC)(c1cc3c(cc1OC)N(C)[C@H]1[C@@](O)(C(=O)OC)[C@H](OC(C)=O)[C@]4(CC)C=CCN5CC[C@]31[C@@H]54)C2` [VINORELBINE], the values for the T/C with P388 [1] and in the data set with P388 [4] were 114% and 117%, respectively. In addition, the GI50 was 2.4 nM with MCF7 and 2.7 nM with HeLa. In addition, in [3], the mortality at 72 h was more than 10%.

Regarding `CC[C@]1(O)C[C@H]2CN(CCc3c([nH]c4ccc(SC)cc34)[C@@](C(=O)OC)(c3cc4c(cc3OC)N(C)[C@H]3[C@@](O)(C(=O)OC)[C@H](OC(C)=O)[C@]5(CC)CC=CN6CC[C@]43[C@@H]65)C2)C1`, the values for the GI50 with MCF7 and in the data set with HeLa were 2 nM and 0.6 nM, respectively. Further, the T/C amounted to 110% in the data set on P388 [5] and 243% with P388 [6].

As to `CCC1=C[C@H]2CN(C1)Cc1c([nH]c3ccc(SC)cc13)[C@@](C(=O)OC)(c1cc3c(cc1OC)N(C)[C@H]1[C@@](O)(C(=O)OC)[C@H](OC(C)=O)[C@]4(CC)CC=CN5CC[C@]31[C@@H]54)C2`, the T/C came out at 102% in the data set on P388 [7] and 124% in the data set with P388 [5]. For the same compound, the GI50 with MCF7 came out at 1 nM; in the data set on HeLa, 0.3 nM.

With `CCSc1ccc2[nH]c3c(c2c1)CCN1C[C@H](C[C@@](O)(CC)C1)C[C@]3(C(=O)OC)c1cc2c(cc1OC)N(C=O)[C@H]1[C@@](O)(C(=O)OC)[C@H](OC(C)=O)[C@]3(CC)CC=CN4CC[C@]21[C@@H]43`, the T/C is given as 107% in the data set on P388 [1] and 105% in the data set with P388 [4]. The GI50 in the data set on MCF7 worked out at 8 nM; in the data set with HeLa, 6 nM.
